According to patent US20070203066A1, “Compositions and methods for inhibiting cellular proliferation” (priority 2005, published 2007):
Non-standard residues stand in square brackets, D forms with d. Primed or numbered codes have the meaning given here. No end group written: not given here. Ida = iminodiacetic acid linker, its two carboxyls bind the Lys side-chain amines of two peptides, giving a homodimer; Ida(3) = iminodiacetic acid linker, Lys side-chain amines bound to its two carboxyl groups; acyl = not defined here; Ahx = NCCCCCC(=O)O

What follows are substances tested on HUVECs. Settings: HUVEC proliferation, bFGF at 10 ng/ml or VEGF at 5 ng/ml, 48 hours, BrdU incorporation; read-out: IC50 on HUVECs.
Format: cell-based
How it was run: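 Proliferation read-out: BrdU incorporation after 48-hour culture (37 ° C, 5% CO2) with graded peptide doses. Cells were in EBM with 2% FCS at 5,000 per well, driven by VEGF (5 ng/ml) or bFGF (10 ng/ml), added after ≥12-hour attachment.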

Compared with “27 (Ac-RTRRRRRRQRVRIAYEEIFVRNM[Ahx]K; not fully specified) [compound 27]”, KRKKQQRVKIAYEEIFV [compound 77] is higher in IC50: 10 to 30 µM for the first, over 30 µM for the second. The first is the more potent here.

“309 (Ac-RRRRRQAK(Ida)RIIFV; also: homodimer via Ida linker on Lys8 side chain) [compound 309]” and KTKRKRKKARVKIIFVQNM [compound 115] cannot be ordered by IC50: under 10 µM for the first, under 10 µM for the second.

“175 (Ac-RRARRQRVRIIF; also: homodimer via C-terminal Lys linker) [compound 175]” and “388 (Ac-ARRRRQAVFIYFK-NH2; not fully specified (residue 13); also: homodimer via Ida linker on Lys13 side chain, Ida amine Boc) [compound 388]” cannot be ordered by IC50: under 10 µM for the first, under 10 µM for the second.

Going from “191 (Ac-AARRRQRVRIIF; also: dimer: C-terminal Phe bound to an amino group of a Lys linker, 2 chains per Lys) [compound 191]” to “353 (Ac-ARRRRQRVAIYYK-NH2; not fully specified (residue 13); also: homodimer of residues 1-13 via Ida linker on K13 side chain) [compound 353]”, the IC50 rises from under 10 µM to over 30 µM. The first is the more potent here.

“277 (XRRRRQRVHIYFK; not fully specified; Xaa = Acylated Histidine; The side chain of Lysine at position 13 is covalently bound to an Ida linker forming a homodimer of residues 1 through 13.) [compound 277]” and “172 (acyl-KRRRRRQRVRIIF; not fully specified (residue 1); reading uncertain; also: homodimer via Ida-PEG 20 kDa linker on Lys1 side chains, acyl group not given here) [compound 172]” cannot be ordered by IC50: under 10 µM for the first, under 10 µM for the second.

First: RKRKKQRVKIAYEEIFV [compound 62]
Second: KTKAKRKKQRVKIIFVQNM [compound 120]
The IC50 of the first is higher: over 30 µM for the first, under 10 µM for the second.

“510 (Ac-ARRRRERVAIYFK; not fully specified (C-terminus); also: homodimer via Ida linker at Lys13 side chain) [compound 510]” and “476 (Ac-PRRRPQAVAIYFK(Ida(3)); not fully specified (C-terminus); also: homodimer via Ida linker on Lys13 side chain) [compound 476]” cannot be ordered by IC50: under 10 µM for the first, under 10 µM for the second.

“239 (Ac-RHRRRQRVHIIF; also: dimer via C-terminal Phe to Lys linker) [compound 239]” and “411 (Ac-TRRRRQAVAIYFK; not fully specified (residue 13, C-terminus); also: homodimer via Ida linker on Lys side chains, linker at 13 via Ida, other end not in the chain) [compound 411]” cannot be ordered by IC50: under 10 µM for the first, under 10 µM for the second.

Compared with “197 (Ac-RAARRQRVRIIF; also: dimer: C-terminal Phe bound to an amino group of a Lys linker, 2 chains per Lys) [compound 197]”, “481 (Ac-PRRRYQAVAIYFK; not fully specified (residue 13, C-terminus); also: homodimer via Ida linker on Lys13 side chain) [compound 481]” is higher in IC50: under 10 µM for the first, 10 to 30 µM for the second.

“326 (Ac-RRRRHQHVRIYFK; not fully specified (residue 13, C-terminus); also: homodimer via Ida linker on Lys13 side chain) [compound 326]” and “192 (Ac-ARARRQRVRIIF; also: dimer: C-terminal Phe bound to an amino group of a Lys linker, 2 chains per Lys) [compound 192]” cannot be ordered by IC50: under 10 µM for the first, under 10 µM for the second.

“257 (Ac-ARRRRQR[dV]AIIFK; not fully specified (C-terminus); also: homodimer: side chain of Lys13 bound to an Ida linker) [compound 257]” and “340 (Ac-RRHRHQHVRIYFK(Ida(3))-NH2; also: homodimer via Lys13 side chain, Ida linker (Ida amino group Boc)) [compound 340]” cannot be ordered by IC50: under 10 µM for the first, under 10 µM for the second.

First: TKRKRKKQRVKIIF [compound 80]
Second: 318 (XRRRRQAVAIYFK; Xaa = Acylated Histidine; The side chain of Lysine at position 13 is covalently bound to an Ida linker forming a homodimer of residues 1 through 13.) [compound 318]
The IC50 of the first is higher: over 30 µM for the first, under 10 µM for the second. The second is the more potent here.

Going from RKKQRVKIIF [compound 84] to “244 (Ac-RRRHRQHVRIIF; also: homodimer: C-termini of two chains bound to the two amines of a Lys linker) [compound 244]”, the IC50 falls from over 30 µM to under 10 µM. The second is the more potent here.

Compared with “241 (Ac-RRHRHQRVRIIF; also: dimer via C-terminal Phe to Lys linker) [compound 241]”, KRKKQRVKIAYEEIFVQNM [compound 22] is higher in IC50: under 10 µM for the first, over 30 µM for the second.

Compared with KRKRKKQRVKIAYEEIF [compound 66], “278 (Ac-RRRRRQHVHIYFK-NH2; not fully specified (residue 13); also: homodimer: Lys13 side chain bound to Ida linker) [compound 278]” is lower in IC50: 10 to 30 µM for the first, under 10 µM for the second. The second is the more potent here.

“275 (Ac-RARRRQAVAIYFK-NH2; not fully specified (residue 13); also: homodimer via Ida linker on Lys13 side chain) [compound 275]” and “363 (Ac-ARRRRQRVAWYFK-NH2; not fully specified (residue 13); also: homodimer of residues 1-13 via Ida linker on K13 side chain) [compound 363]” cannot be ordered by IC50: under 10 µM for the first, under 10 µM for the second.

First: KTKRKRKKQRVKIAYEEIFVQN [compound 25]
Second: TKRKRKKQRVKIAYEEIF [compound 65]
The IC50 of the first is lower: under 10 µM for the first, over 30 µM for the second.

“1 ([Ahx]RTRRRRRRQRVRIAYEEIFVRNM) [compound 1]” and “247 (Ac-RRRRHQRVHIIF; also: homodimer: C-termini of two chains bound to the two amines of a Lys linker) [compound 247]” cannot be ordered by IC50: under 10 µM for the first, under 10 µM for the second.

“195 (Ac-ARRRRQAVRIIF; also: dimer: C-terminal Phe bound to an amino group of a Lys linker, 2 chains per Lys) [compound 195]” and “176 (Ac-RRRARQRVRIIF; also: homodimer via C-terminal Lys linker) [compound 176]” cannot be ordered by IC50: under 10 µM for the first, under 10 µM for the second.

“425 (Ac-ARRRRQRVAIKF; not fully specified (residue 11); also: homodimer of residues 1-12 via Ida linker on Lys11 side chain) [compound 425]” and “475 (Ac-PRRRNQAVAIYFK(Ida(3)); not fully specified (C-terminus); also: homodimer via Ida linker on Lys13 side chain) [compound 475]” cannot be ordered by IC50: under 10 µM for the first, under 10 µM for the second.

First: 369 (Ac-ARRRRQRVAQYFK-NH2; not fully specified (residue 13); also: homodimer via Ida linker on Lys13 side chain, Boc on Ida amine) [compound 369]
Second: 253 (Ac-ARRRRQRVAII[dF]K; not fully specified (C-terminus); also: homodimer: side chain of Lys13 bound to an Ida linker) [compound 253]
The IC50 of the first is higher: over 30 µM for the first, under 10 µM for the second. The second is the more potent here.

“346 (Ac-ARRRRQRVAIYEK-NH2; not fully specified (residue 13); also: homodimer of residues 1-13 via Ida linker on Lys13 side chain) [compound 346]” and KTKRKRKKQRVKIAYEENM [compound 41] cannot be ordered by IC50: over 30 µM for the first, over 30 µM for the second.

“274 (Ac-RARRRQAVAIWFK-NH2; not fully specified (residue 13); also: homodimer via Ida linker on Lys13 side chain) [compound 274]” and “225 (Ac-ARRRRQRVAINFK; also: homodimer via Ida linker on side chain of Lys13) [compound 225]” cannot be ordered by IC50: under 10 µM for the first, under 10 µM for the second.

“507 (Ac-RGDSPGGARRRRQRVAIYFK; also: homodimer via Ida linker on Lys20 side chain) [compound 507]” and “333 (Ac-RHHRRQHVRIYFK; not fully specified (residue 13, C-terminus); also: homodimer via Ida linker on Lys13 side chain) [compound 333]” cannot be ordered by IC50: under 10 µM for the first, under 10 µM for the second.

Going from “348 (Ac-ARRRRQRVAIYHK-NH2; not fully specified (residue 13); also: homodimer of residues 1-13 via Ida linker on Lys13 side chain) [compound 348]” to “332 (XRRRHQHVRIYFK; not fully specified; Xaa = Acylated Histidine; The side chain of Lysine at position 13 is covalently bound to an Ida linker forming a homodimer of residues 1 through 13.) [compound 332]”, the IC50 falls from over 30 µM to under 10 µM.

First: 245 (Ac-RRRHRQRVHIIF; also: homodimer: C-termini of two chains bound to the two amines of a Lys linker) [compound 245]
Second: 169 (Ac-KRRRRRQRVRIIF; also: homodimer via Ida linker on Lys1 side chains) [compound 169]
The IC50 of the first is higher: 10 to 30 µM for the first, under 10 µM for the second.

“398 (Ac-ARRRRQAVLIYFK; not fully specified (residue 13, C-terminus); also: homodimer of residues 1-13 via Ida linker at Lys13 side chain) [compound 398]” and “324 (Ac-RRHRRQHVRIYFK(Ida)-NH2; also: homodimer via Ida linker on Lys13 side chain) [compound 324]” cannot be ordered by IC50: under 10 µM for the first, under 10 µM for the second.
